Data from PubChem BioAssay AID1996.
≈ marks a conversion by molar mass, not a printed value.

Settings: buffer; pH 7.4; 200.0 µM

Row | Structure (SMILES) | solubility kinetic [µg/mL]
1 | S=C(Nc1cccnc1)N1CCCCC1 | > 33.2
2 | CCCNC(=O)c1ccc2c(c1)S(=O)(=O)c1ccccc1C2=O | 7.9 (≈ 24 µM)
3 | CCC(C(=O)OCC(=O)N1C(C)CCCC1C)c1ccccc1 (centres undefined) | 45.1 (≈ 142 µM)
4 | O=C(c1ccc(F)cc1F)N1CCCc2ccccc21 | > 41
5 | O=C(Nc1ccc(Cl)cn1)c1ccc2[nH]c(=O)c(=O)[nH]c2c1 | 11.7 (≈ 36.9 µM)
6 | CCOc1ccccc1/C=C/c1cc(C(=O)O)c2ccccc2n1 | 45.8 (≈ 143 µM)
7 | CC(C)(C)c1ccc(NC(=S)NCCc2ccccn2)cc1 | 5.1 (≈ 16.3 µM)
8 | COc1ccc(C(=O)NC2CCSc3ccccc32)cc1 (centres undefined) | 6.3 (≈ 21 µM)
9 | Cc1ccc(CNS(=O)(=O)c2c(C)n(C)c(=O)n(C)c2=O)cc1 | > 50.6
10 | COc1ccc(OC)c(NC(=O)Nc2cccnc2)c1 | > 41
11 | COc1ccc(NC(=O)CN(C)C2=NS(=O)(=O)c3ccccc32)cc1Cl | 4.4 (≈ 11.2 µM)
12 | CCN(CC)CCCNC(=O)Cn1ccc2ccccc2c1=O | > 47.3
13 | Cc1cccc(OCC(=O)O/N=C(\N)c2ccncc2)c1 | > 42.8
14 | Cc1ccc2nc(SCC(=O)Nc3ccc(C(N)=O)cc3)[nH]c2c1 | 9.9 (≈ 29.1 µM)
15 | O=C(c1ccco1)N1CCN(S(=O)(=O)c2ccccc2)CC1 | > 48.1
16 | COc1ccc(-c2cc(C(=O)Nc3ccc(C)c(C)c3)no2)cc1 | < 0.3
17 | CCc1ccccc1NC(=S)NCCSc1ccc(Cl)cc1 | 1.8 (≈ 5.13 µM)
18 | CCOc1nc(-c2ccccc2)ncc1Oc1ccccc1 | < 0.3
19 | O=C(Nc1cccc(C(F)(F)F)c1)c1scc2c1OCCO2 | < 0.7
20 | O=C(Nc1ccn([C@H]2CC[C@@H](CO)O2)c(=O)n1)c1ccccc1 | > 47.3

Row | Structure (SMILES) | solubility kinetic [µg/mL]
21 | NC(=O)c1ccc(Nc2ccc3c(c2)CCC3)c([N+](=O)[O-])c1 | 2.6 (≈ 8.74 µM)
22 | O=C(CNS(=O)(=O)c1ccc(F)cc1)N1CCCC1 | > 42.9
23 | CC(C)Oc1cc(C(=O)NC2CCCCC2)c2ccccc2n1 | 1.4 (≈ 4.48 µM)
24 | CCOc1ccc(C(C)=O)cc1Cc1c(O)[nH]c(=S)[nH]c1=O | 46.3 (≈ 145 µM)
25 | O=C(Oc1ccc(C(=S)N2CCOCC2)cc1)c1cccc(Cl)c1 | < 0.8
26 | O=C(Nc1ccncc1)c1ccc(Cl)cc1 | > 34.9
27 | COc1ccc(N2CCN(C(=O)Cn3cncn3)CC2)cc1 | > 45.2
28 | COc1cccc(COC(=O)C2CCN(C(=O)c3ccccc3C)CC2)c1OC | > 59.6
29 | c1ccc(-c2nc3ccccn3c2-c2ccccc2)cc1 | 10.1 (≈ 37.4 µM)
30 | Cc1ccc(NC(=O)CN2CCOCC2)cc1C | 35.1 (≈ 141 µM)
31 | Cc1ccc(NS(=O)(=O)Cc2ccccc2)cc1Cl | 1.8 (≈ 6.09 µM)
32 | COCCNC(=S)N1CCC(Cc2ccccc2)CC1 | > 43.9
33 | CN(C)CC/C=C1/c2cc(F)ccc2Sc2ccc(Cl)cc21.Cl | 32.8
34 | CC(C)N(Cc1cnn(C)c1)Cc1nc(Cc2ccccc2Cl)no1 | > 54
35 | COc1ccc(N2CCN(C(=O)c3cccc(NS(=O)(=O)c4cccc(F)c4)c3)CC2)cc1 | 52.8 (≈ 112 µM)
36 | O=C1c2ccccc2C2(c3ccccc3)NCCCN12 (centres undefined) | > 39.6
37 | NS(=O)(=O)c1ccc(NC(=O)c2cc(Cl)sc2Cl)cc1 | 15.4 (≈ 43.8 µM)
38 | CC(Sc1nncs1)C(=O)NC1CCCCC1C (centres undefined) | > 42.8
39 | CCn1ccc(C(=O)Nc2ncc(C)s2)n1 | > 35.4
40 | CN(C)S(=O)(=O)c1cccc(C(=O)Nc2ccccc2C(=O)NC2CC2)c1 | 47 (≈ 121 µM)

Row | Structure (SMILES) | solubility kinetic [µg/mL]
41 | CCOC(=O)CN1C(=O)CC(c2ccccc2)C1=O (centres undefined) | > 39.2
42 | Cc1ccc2c(CN3CCOCC3)cc(=O)oc2c1 | > 38.9
43 | CCCS(=O)(=O)N1CCCC(C(=O)Oc2ccc(C)c(C)c2)C1 (centres undefined) | < 0.7
44 | CS(=O)(=O)N1CCCC(C(=O)Nc2ccccc2Cl)C1 (centres undefined) | > 47.5
45 | Cc1ccc(C)c(NC(=O)CCN2CC(C)CC(C)C2)c1 (centres undefined) | 32.7 (≈ 113 µM)
46 | O=C(c1ccco1)N1CCN(c2ccc([N+](=O)[O-])cn2)CC1 | 18.3 (≈ 60.5 µM)
47 | C[C@H](NC(=O)c1ccccc1Cl)C(=O)Nc1ccccc1F | > 48.1
48 | COc1ccc(CNc2ccc3c(c2)CCC3)cc1Br | 5.6 (≈ 16.9 µM)
49 | Cc1ccc(NC(=O)CN2C(=O)c3ccccc3S2(=O)=O)c(C)c1 | 2.7 (≈ 7.84 µM)
50 | Cc1ccc(C(=O)Nc2ccccc2Cl)cc1 | 21 (≈ 85.5 µM)
51 | S=C(NCC1COc2ccccc2O1)Nc1ccccc1 (centres undefined) | 6.5 (≈ 21.6 µM)
52 | O=C(CNC(=O)C1CCCCC1)NCc1ccco1 | > 39.6
53 | Cc1ccc(NC(=O)COC(=O)C2CC2)cc1S(=O)(=O)N1CCOCC1 | > 57.4
54 | CN1C(=O)c2ccccc2C(C(=O)O)C1c1cccc([N+](=O)[O-])c1 (centres undefined) | > 48.9
55 | Cc1ccc(NC(=O)CCCN2C(=O)NC(C)(C)C2=O)cc1 | 38.7 (≈ 128 µM)
56 | O=C(NC1CC2CCCC(C1)N2C(=O)Nc1ccccc1F)C1CC1 (centres undefined) | 16.2 (≈ 46.9 µM)
57 | COc1ccccc1CC(=O)N1CCN(c2ccc(F)cc2)CC1 | > 49.3
58 | OCCC1CN(Cc2ccsc2)CCN1C1CCCC1 (centres undefined) | > 44.2
59 | Cc1ccc(NC(=O)C2CCCC2)cc1Cl | 3.7 (≈ 15.6 µM)
